Test results reported in patent US6225350A, “Butyrate prodrugs derived from lactic acid” (Vertex Pharmaceuticals, Inc., priority 1999, dated 2001).

Tests used:
[1] = test system: retinoblastoma cell lines; conditions: Human Y-79 retinoblastoma cell line; cited from earlier work
pancreatic cancer cells = conditions: cited from earlier work
[2] = test system: colorectal carcinoma cell lines; conditions: cited from earlier work
[3] = test system: Fetal hemoglobin cells (F cells); test: Efficacy study in anemic rhesus monkeys: %F cells; format: in vivo; conditions: for %F cell count: 8-10% before Phase I
Hemoglobin F = test: Efficacy study in anemic rhesus monkeys: %Hb F by HPLC; format: in vivo
y globin chain = test: Efficacy study in anemic rhesus monkeys: %y globin chain by HPLC; format: in vivo
[4] = rhesus monkey, in vivo
Description: The efficacy of compound IIIc administered in conjunction with hydroxyurea was tested on six anemic rhesus monkeys divided into three groups of two each. Each group was studied in two phases, as shown below. Fetal hemoglobin cells (F cells), Hemoglobin F level in total Hemoglobin (%Hb F) and %y globin chain levels were monitored before and after each of the two phases. %F cells were measured according to the protocol described in Betke et al, Blut., 4, pp. 241-9 (1958). %Hb F and %y globin chain synthesis were measured using High Performance Liquid Chromatography (HPLC) according to the protocol described in Huisman, J. Chromagtogr., 418, pp. 277 (1987).

Erythroleukemic Cells = conditions: cited from earlier work
leukemia = conditions: cited from earlier work
[5] = in vivo; cited from earlier work
[6] = Group I (hydroxyurea in Phase I, hydroxyurea + compound IIIc in Phase II)

What does the source list for CCCC(=O)[O-].[Na+] [Sodium butyrate]?
apoptosis in retinoblastoma cell lines [1]: induce apoptosis; antigen expression in pancreatic cancer cells (pancreatic cancer cells): modify antigen expression; apoptosis in colorectal carcinoma cell lines [2]: induce apoptosis

With NC(=O)NO [Hydroxyurea] as the compound, how does the “%F cell count” value ([3]; Animal 1, group I, end of Phase I (hydroxyurea 50 mg/kg/day, 5 weeks)) read?
The value was 25%.

What about the “%Hb F, change” value (Hemoglobin F; [6]) of the same compound?
The value was “measurable increase”.

What about the “%y-globin chain level, change” value (y globin chain; [6]) of the same compound?
Its value is “measurable increase”.

And the “levels of ALT prior to or during the phases” value [4]?
The value was “no detectable difference”.

And the “levels of the triglycerides prior to or during the phases” value [4]?
The value was “no detectable difference”.

Which results are given for CCCC(=O)O [butyric acid]?
cell differentiation in vitro (Erythroleukemic Cells): induces cell differentiation; effects in leukemia patients (leukemia): promising effects in leukemia patients

For CCCC(=O)O[C@@H](C)C(=O)OCC [Compound IIIc], which “%F cell count” value ([3]; Animal 2, group II, end of Phase I (compound IIIc 1 g/kg/day, 5 weeks)) is on record?
Its value is 15%.

And the “%F cell count” value ([3]; Animal 2, group II, end of Phase II (compound IIIc 1 g/kg/TID, 5 weeks))?
The value was 22%.

And the “%F cells, change” value ([3]; Groups II and III)?
The value was “small but significant increase”.

And the “HBf level, change” value (Hemoglobin F; Groups II and III)?
The value was “no measurable change”.

And the “Y-globin chain level, change” value (y globin chain; Groups II and III)?
The value was “no measurable change”.

And the “levels of ALT prior to or during the phases” value [4]?
The value was “no detectable difference”.

And the “levels of the triglycerides prior to or during the phases” value [4]?
Its value is “no detectable difference”.

For CCCC(=O)OCOC(=O)C(C)(C)C [AN-9], which “metabolites / toxic effects” value [5] is on record?
Its value is “elicit metabolites that may produce formaldehyde in vivo, leading to toxic effects in patients”.
